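Five compound concentrations were applied to cells in 96-well plates for 48 hours; endpoints were derived by simple linear interpolation of the resulting dose-response curve. At the TGI there is no net growth.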
Legend:
Assay in all cases: inhibition of tumour cell growth, NCI panel, 48 h
NCI-H23 lung = tested on: NCI-H23 lung
MDA-MB-435 = tested on: MDA-MB-435
K-562 leukemia = tested on: K-562 leukemia
HCT-116 colon = tested on: HCT-116 colon
BT-549 breast = tested on: BT-549 breast
NCI-H226 lung = tested on: NCI-H226 lung
HCC-2998 colon = tested on: HCC-2998 colon
MCF7 breast = tested on: MCF7 breast
SNB-75 CNS = tested on: SNB-75 CNS
TK-10 renal = tested on: TK-10 renal
SN12C renal = tested on: SN12C renal
MDA-MB-231 breast = tested on: MDA-MB-231 breast
NCI-H460 lung = tested on: NCI-H460 lung
SNB-19 CNS = tested on: SNB-19 CNS
DU-145 prostate = tested on: DU-145 prostate
SK-MEL-28 melanoma = tested on: SK-MEL-28 melanoma
SW-620 colon = tested on: SW-620 colon
A549 NSCLC = tested on: A549 NSCLC
MALME-3M melanoma = tested on: MALME-3M melanoma
T-47D breast = tested on: T-47D breast
OVCAR-4 ovarian = tested on: OVCAR-4 ovarian
HS 578T breast = tested on: HS 578T breast
HCT-15 colon = tested on: HCT-15 colon
KM12 colon = tested on: KM12 colon
M14 melanoma = tested on: M14 melanoma
UO-31 renal = tested on: UO-31 renal
OVCAR-3 ovarian = tested on: OVCAR-3 ovarian
MOLT-4 leukemia = tested on: MOLT-4 leukemia
A498 renal = tested on: A498 renal
OVCAR-8 ovarian = tested on: OVCAR-8 ovarian
HT29 colon = tested on: HT29 colon
UACC-62 melanoma = tested on: UACC-62 melanoma
U251 CNS = tested on: U251 CNS
OVCAR-5 ovarian = tested on: OVCAR-5 ovarian
HOP-62 NSCLC = tested on: HOP-62 NSCLC
SK-MEL-5 melanoma = tested on: SK-MEL-5 melanoma
HOP-92 NSCLC = tested on: HOP-92 NSCLC
SF-295 CNS = tested on: SF-295 CNS
SK-OV-3 ovarian = tested on: SK-OV-3 ovarian
SR leukemia = tested on: SR leukemia
IGROV1 ovarian = tested on: IGROV1 ovarian
UACC-257 melanoma = tested on: UACC-257 melanoma
PC-3 prostate = tested on: PC-3 prostate
NCI-H522 lung = tested on: NCI-H522 lung
EKVX NSCLC = tested on: EKVX NSCLC
MDA-N = tested on: MDA-N
NCI/ADR-RES ovarian = tested on: NCI/ADR-RES ovarian
SF-268 CNS = tested on: SF-268 CNS
ACHN renal = tested on: ACHN renal
CAKI-1 renal = tested on: CAKI-1 renal
SF-539 CNS = tested on: SF-539 CNS
CCRF-CEM leukemia = tested on: CCRF-CEM leukemia
LOX IMVI melanoma = tested on: LOX IMVI melanoma
786-0 renal = tested on: 786-0 renal
COLO 205 colon = tested on: COLO 205 colon
RPMI-8226 leukemia = tested on: RPMI-8226 leukemia
RXF 393 renal = tested on: RXF 393 renal
SK-MEL-2 melanoma = tested on: SK-MEL-2 melanoma
HL-60(TB) leukemia = tested on: HL-60(TB) leukemia

For `CC1=C/C(=N\O)C(C(O)(C(F)(F)F)C(F)(F)F)C(C)(C)C1` (stereo not given), the TGI (NCI-H23 lung) was > 10 µM, the TGI (MDA-MB-435) was > 10 µM and the TGI (K-562 leukemia) was > 10 µM. The TGI (HCT-116 colon) was > 10 µM, the TGI (BT-549 breast) was > 10 µM and the TGI (NCI-H226 lung) was > 10 µM. For the same compound, the TGI (HCC-2998 colon) was > 10 µM, the TGI (MCF7 breast) was > 10 µM and the TGI (SNB-75 CNS) was > 10 µM. The TGI (TK-10 renal) was > 10 µM, the TGI (SN12C renal) was > 10 µM and the TGI (MDA-MB-231 breast) was > 10 µM. For the same compound, the TGI (NCI-H460 lung) was > 10 µM, the TGI (SNB-19 CNS) was > 10 µM and the TGI (DU-145 prostate) was > 10 µM. For the same compound, the TGI (SK-MEL-28 melanoma) was > 10 µM, the TGI (SW-620 colon) was > 10 µM and the TGI (A549 NSCLC) was > 10 µM. For the same compound, the TGI (MALME-3M melanoma) was > 10 µM, the TGI (T-47D breast) was > 10 µM and the TGI (OVCAR-4 ovarian) was > 10 µM. For the same compound, the TGI (HS 578T breast) was > 10 µM, the TGI (HCT-15 colon) was > 10 µM and the TGI (KM12 colon) was > 10 µM. The TGI (M14 melanoma) was > 10 µM, the TGI (UO-31 renal) was > 10 µM and the TGI (OVCAR-3 ovarian) was > 10 µM. For the same compound, the TGI (MOLT-4 leukemia) was > 10 µM, the TGI (A498 renal) was > 10 µM and the TGI (OVCAR-8 ovarian) was > 10 µM. For the same compound, the TGI (HT29 colon) was > 10 µM, the TGI (UACC-62 melanoma) was > 10 µM and the TGI (U251 CNS) was > 10 µM. The TGI (OVCAR-5 ovarian) was > 10 µM, the TGI (HOP-62 NSCLC) was > 10 µM and the TGI (SK-MEL-5 melanoma) was > 10 µM. The TGI (HOP-92 NSCLC) was > 10 µM, the TGI (SF-295 CNS) was > 10 µM and the TGI (SK-OV-3 ovarian) was > 10 µM. The TGI (SR leukemia) was > 10 µM, the TGI (IGROV1 ovarian) was > 10 µM and the TGI (UACC-257 melanoma) was > 10 µM. For the same compound, the TGI (PC-3 prostate) was > 10 µM, the TGI (NCI-H522 lung) was > 10 µM and the TGI (EKVX NSCLC) was > 10 µM. The TGI (MDA-N) was > 10 µM, the TGI (NCI/ADR-RES ovarian) was > 10 µM and the TGI (SF-268 CNS) was > 10 µM. The TGI (ACHN renal) was > 10 µM, the TGI (CAKI-1 renal) was > 10 µM and the TGI (SF-539 CNS) was > 10 µM. For the same compound, the TGI (CCRF-CEM leukemia) was > 10 µM, the TGI (LOX IMVI melanoma) was > 10 µM and the TGI (786-0 renal) was > 10 µM. For the same compound, the TGI (COLO 205 colon) was > 10 µM.

`CCc1n[nH]c(=O)n1/N=C/c1ccc(C)cc1` was tested, and the TGI (NCI-H23 lung) was > 100 µM, the TGI (MDA-MB-435) was > 100 µM and the TGI (K-562 leukemia) was > 100 µM. The TGI (HCT-116 colon) was > 100 µM, the TGI (BT-549 breast) was > 100 µM and the TGI (NCI-H226 lung) was > 100 µM. For the same compound, the TGI (HCC-2998 colon) was > 100 µM, the TGI (MCF7 breast) was > 100 µM and the TGI (TK-10 renal) was > 100 µM. For the same compound, the TGI (SN12C renal) was > 100 µM, the TGI (RPMI-8226 leukemia) was > 100 µM and the TGI (MDA-MB-231 breast) was > 100 µM. The TGI (NCI-H460 lung) was > 100 µM, the TGI (SNB-19 CNS) was > 100 µM and the TGI (DU-145 prostate) was > 100 µM. For the same compound, the TGI (SK-MEL-28 melanoma) was > 100 µM, the TGI (SW-620 colon) was > 100 µM and the TGI (A549 NSCLC) was > 100 µM. The TGI (MALME-3M melanoma) was > 100 µM, the TGI (T-47D breast) was > 100 µM and the TGI (OVCAR-4 ovarian) was > 100 µM. The TGI (HS 578T breast) was 44.3 µM, the TGI (HCT-15 colon) was > 100 µM and the TGI (KM12 colon) was > 100 µM. The TGI (UO-31 renal) was > 100 µM, the TGI (OVCAR-3 ovarian) was > 100 µM and the TGI (MOLT-4 leukemia) was > 100 µM. For the same compound, the TGI (A498 renal) was > 100 µM, the TGI (OVCAR-8 ovarian) was > 100 µM and the TGI (HT29 colon) was > 100 µM. The TGI (UACC-62 melanoma) was > 100 µM, the TGI (U251 CNS) was > 100 µM and the TGI (OVCAR-5 ovarian) was > 100 µM. For the same compound, the TGI (HOP-62 NSCLC) was > 100 µM, the TGI (RXF 393 renal) was > 100 µM and the TGI (SK-MEL-5 melanoma) was > 100 µM. For the same compound, the TGI (HOP-92 NSCLC) was > 100 µM, the TGI (SF-295 CNS) was > 100 µM and the TGI (SK-OV-3 ovarian) was > 100 µM. The TGI (SK-MEL-2 melanoma) was > 100 µM, the TGI (IGROV1 ovarian) was > 100 µM and the TGI (UACC-257 melanoma) was > 100 µM. The TGI (NCI-H522 lung) was > 100 µM, the TGI (EKVX NSCLC) was > 100 µM and the TGI (MDA-N) was > 100 µM. The TGI (NCI/ADR-RES ovarian) was > 100 µM, the TGI (SF-268 CNS) was > 100 µM and the TGI (ACHN renal) was > 100 µM. The TGI (CAKI-1 renal) was > 100 µM, the TGI (SF-539 CNS) was > 100 µM and the TGI (CCRF-CEM leukemia) was > 100 µM. The TGI (HL-60(TB) leukemia) was > 100 µM, the TGI (LOX IMVI melanoma) was > 100 µM and the TGI (786-0 renal) was > 100 µM. For the same compound, the TGI (COLO 205 colon) was > 100 µM.

— PubChem BioAssay (NCI)
